Data: ChEMBL document CHEMBL3217699, “Discovery of potent, proteolytically stable, and cell permeable human sirtuin peptidomimetic inhibitors containing N-thioacetyl-lysine” (Medchemcomm, 2010)
Values belong to the molecule of their own block, whether it stands above or below them. Calls of active or inactive are those of the source. The rule behind the calls is not given here. Where a SMILES comes first, the peptide text is derived from it.

What was measured:
[1] = Proteolytic stability of the compound assessed as degradation after 30 mins by HPLC in presence of pronase; format: ADME; settings: 0.5 h
[2] = biological target: Histone deacetylase 1 (Homo sapiens) (UniProt Q13547); experiment: Activity of HDAC1 in human HeLa cells nuclear extract assessed as compound deacetylation measured up to 2 hrs by time course assay; format: cell-free
Chain of Histone deacetylase 1 (Homo sapiens) (Q13547 whole entry): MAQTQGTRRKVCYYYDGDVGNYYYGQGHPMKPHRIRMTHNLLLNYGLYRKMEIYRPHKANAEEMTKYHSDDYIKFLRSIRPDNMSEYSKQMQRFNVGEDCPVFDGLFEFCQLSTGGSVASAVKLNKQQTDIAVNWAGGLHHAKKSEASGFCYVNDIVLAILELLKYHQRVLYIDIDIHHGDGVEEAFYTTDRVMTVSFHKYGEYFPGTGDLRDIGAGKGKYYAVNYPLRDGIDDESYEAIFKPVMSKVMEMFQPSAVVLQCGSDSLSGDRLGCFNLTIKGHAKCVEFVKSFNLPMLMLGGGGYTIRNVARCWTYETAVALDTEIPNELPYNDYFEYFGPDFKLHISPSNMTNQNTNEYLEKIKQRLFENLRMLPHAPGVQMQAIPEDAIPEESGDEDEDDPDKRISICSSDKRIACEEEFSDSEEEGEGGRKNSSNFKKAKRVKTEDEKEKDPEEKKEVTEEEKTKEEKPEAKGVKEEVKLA

[3] = biological target: T1, Histone deacetylase 8 (Homo sapiens) (UniProt Q9BY41); experiment: Activity of recombinant HDAC8 (unknown origin) assessed as compound deacetylation measured up to 4 hrs by time course assay
T1 sequence (whole entry): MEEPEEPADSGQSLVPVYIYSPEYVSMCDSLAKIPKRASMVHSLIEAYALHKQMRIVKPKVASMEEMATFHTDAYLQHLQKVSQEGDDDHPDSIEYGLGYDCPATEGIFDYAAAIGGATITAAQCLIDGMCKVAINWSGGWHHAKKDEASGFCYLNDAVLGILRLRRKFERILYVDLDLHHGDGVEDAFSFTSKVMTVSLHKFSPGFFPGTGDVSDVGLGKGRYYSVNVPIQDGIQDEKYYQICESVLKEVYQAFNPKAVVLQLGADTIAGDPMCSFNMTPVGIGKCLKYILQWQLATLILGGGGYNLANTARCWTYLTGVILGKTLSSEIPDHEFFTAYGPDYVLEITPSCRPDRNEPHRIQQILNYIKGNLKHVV

[4] = biological target: T2, NAD-dependent protein deacetylase sirtuin-1 (Homo sapiens, UniProt Q96EB6); experiment: Inhibition of human SIRT1 using peptide substrate assessed as deacetylase activity
T2 sequence (Q96EB6 whole entry): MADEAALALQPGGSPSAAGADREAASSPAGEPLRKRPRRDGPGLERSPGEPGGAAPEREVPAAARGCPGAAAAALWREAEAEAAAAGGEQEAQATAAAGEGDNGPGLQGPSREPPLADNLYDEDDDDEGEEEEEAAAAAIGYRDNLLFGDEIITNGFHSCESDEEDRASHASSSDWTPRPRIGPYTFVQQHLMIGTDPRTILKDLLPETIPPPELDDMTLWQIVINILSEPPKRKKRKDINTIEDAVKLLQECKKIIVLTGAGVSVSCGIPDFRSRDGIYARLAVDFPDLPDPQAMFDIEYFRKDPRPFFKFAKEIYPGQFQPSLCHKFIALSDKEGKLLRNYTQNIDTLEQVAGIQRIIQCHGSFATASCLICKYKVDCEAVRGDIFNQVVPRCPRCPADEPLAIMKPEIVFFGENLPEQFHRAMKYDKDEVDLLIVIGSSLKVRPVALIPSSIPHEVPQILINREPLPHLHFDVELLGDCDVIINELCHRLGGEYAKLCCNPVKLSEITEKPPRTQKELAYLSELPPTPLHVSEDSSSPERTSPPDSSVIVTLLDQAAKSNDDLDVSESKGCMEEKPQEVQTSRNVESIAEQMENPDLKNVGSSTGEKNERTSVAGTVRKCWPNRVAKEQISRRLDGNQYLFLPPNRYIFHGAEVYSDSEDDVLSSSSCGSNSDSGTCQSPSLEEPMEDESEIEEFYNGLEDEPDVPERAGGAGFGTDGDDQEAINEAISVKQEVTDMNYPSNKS

[5] = biological target: T3, NAD-dependent protein deacetylase sirtuin-2 (Homo sapiens, UniProt Q8IXJ6); experiment: Inhibition of GST-tagged SIRT2 (unknown origin) by HPLC assay
T3 sequence (Q8IXJ6 whole entry): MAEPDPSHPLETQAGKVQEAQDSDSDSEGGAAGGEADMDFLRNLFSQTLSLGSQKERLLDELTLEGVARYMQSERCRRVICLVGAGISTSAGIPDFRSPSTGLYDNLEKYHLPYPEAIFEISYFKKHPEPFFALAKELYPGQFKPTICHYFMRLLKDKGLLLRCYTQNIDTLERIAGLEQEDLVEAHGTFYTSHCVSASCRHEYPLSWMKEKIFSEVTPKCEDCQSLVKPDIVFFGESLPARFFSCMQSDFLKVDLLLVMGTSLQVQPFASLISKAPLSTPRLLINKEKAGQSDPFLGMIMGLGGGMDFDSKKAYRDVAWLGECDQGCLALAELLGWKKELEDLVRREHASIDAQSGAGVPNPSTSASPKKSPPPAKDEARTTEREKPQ

[6] = biological target: T4, NAD-dependent protein deacetylase sirtuin-1 (Homo sapiens) (UniProt Q96EB6); experiment: Inhibition of SIRT1 in human HCT116 cells assessed as increase in p53 acetylation level at 5 uM by Western blot analysis; format: cell-based; settings: HCT-116
T4 sequence (whole entry): T2 sequence (Q96EB6 whole entry)

[7] = biological target: T5, NAD-dependent protein deacetylase sirtuin-3, mitochondrial (Homo sapiens, UniProt Q9NTG7); experiment: Inhibition of GST-tagged SIRT3 (unknown origin) by HPLC assay
T5 sequence (Q9NTG7 whole entry): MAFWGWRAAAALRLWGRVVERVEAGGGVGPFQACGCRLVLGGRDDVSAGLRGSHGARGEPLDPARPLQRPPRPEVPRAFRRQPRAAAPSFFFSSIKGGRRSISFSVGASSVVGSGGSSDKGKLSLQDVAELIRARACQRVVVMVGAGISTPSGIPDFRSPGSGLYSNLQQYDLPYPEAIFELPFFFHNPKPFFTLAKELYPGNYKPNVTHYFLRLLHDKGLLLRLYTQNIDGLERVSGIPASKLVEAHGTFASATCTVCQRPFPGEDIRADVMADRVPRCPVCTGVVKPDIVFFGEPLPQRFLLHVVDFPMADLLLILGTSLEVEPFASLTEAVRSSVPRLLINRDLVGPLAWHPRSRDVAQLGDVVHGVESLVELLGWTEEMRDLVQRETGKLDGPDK

[8] = biological target: T4, NAD-dependent protein deacetylase sirtuin-1 (Homo sapiens); experiment: Activity of GST-tagged SIRT1 (unknown origin) assessed as compound deacetylation measured up to 4 hrs by sirutin time course assay
[9] = biological target: T6, NAD-dependent protein deacetylase sirtuin-3, mitochondrial (Homo sapiens) (UniProt Q9NTG7); experiment: Activity of GST-tagged SIRT3 (unknown origin) assessed as compound deacetylation measured up to 4 hrs by sirutin time course assay
T6 sequence (whole entry): T5 sequence (Q9NTG7 whole entry)

[10] = biological target: Histone deacetylase 2 (Homo sapiens) (UniProt Q92769); experiment: Activity of HDAC2 in human HeLa cells nuclear extract assessed as compound deacetylation measured up to 2 hrs by time course assay; format: cell-free
Chain of Histone deacetylase 2 (Homo sapiens) (Q92769 whole entry): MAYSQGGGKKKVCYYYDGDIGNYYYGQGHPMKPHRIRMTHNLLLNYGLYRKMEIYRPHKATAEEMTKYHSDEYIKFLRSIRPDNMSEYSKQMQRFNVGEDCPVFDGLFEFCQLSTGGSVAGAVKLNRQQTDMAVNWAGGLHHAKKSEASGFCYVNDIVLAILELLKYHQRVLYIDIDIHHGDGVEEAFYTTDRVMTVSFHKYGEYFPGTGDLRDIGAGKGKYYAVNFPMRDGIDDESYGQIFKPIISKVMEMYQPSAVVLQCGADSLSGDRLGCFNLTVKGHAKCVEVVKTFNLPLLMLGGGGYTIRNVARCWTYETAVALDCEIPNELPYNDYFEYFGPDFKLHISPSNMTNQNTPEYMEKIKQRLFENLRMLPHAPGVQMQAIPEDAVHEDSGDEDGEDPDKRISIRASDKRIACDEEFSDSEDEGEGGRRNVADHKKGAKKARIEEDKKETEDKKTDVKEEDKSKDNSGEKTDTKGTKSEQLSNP

[11] = biological target: T7, NAD-dependent protein deacetylase sirtuin-2 (Homo sapiens) (UniProt Q8IXJ6); experiment: Activity of GST-tagged SIRT2 (unknown origin) assessed as compound deacetylation measured up to 4 hrs by sirutin time course assay
T7 sequence (whole entry): T3 sequence (Q8IXJ6 whole entry)

[12] = biological target: T4, NAD-dependent protein deacetylase sirtuin-1 (Homo sapiens); experiment: Inhibition of SIRT1 in human HCT116 cells assessed as increase in p53 acetylation level at 3 uM by Western blot analysis; format: cell-based; settings: HCT-116
[13] = biological target: T7, NAD-dependent protein deacetylase sirtuin-2 (Homo sapiens); experiment: Ratio of AGK2 to compound in GST-tagged SIRT2 (unknown origin)
[14] = biological target: T4, NAD-dependent protein deacetylase sirtuin-1 (Homo sapiens); experiment: Inhibition of SIRT1 in human HCT116 cells assessed as increase in p53 acetylation level by Western blot analysis; format: cell-based; settings: HCT-116
[15] = biological target: T4, NAD-dependent protein deacetylase sirtuin-1 (Homo sapiens); experiment: Inhibition of SIRT1 in human HCT116 cells assessed as increase in p53 acetylation level at 500 uM by Western blot analysis; format: cell-based; settings: HCT-116
[16] = biological target: T4, NAD-dependent protein deacetylase sirtuin-1 (Homo sapiens); settings: HCT-116, 10 uM
Description: Inhibition of SIRT1 in human HCT116 cells assessed as increase in p53 acetylation level at 10 uM by Western blot analysis

SMILES: CC(=O)NCCC[C@H](NC(=O)[C@H](CCCCNC(C)=S)NC(=O)[C@H](CCCNC(C)=O)NC(C)=O)C(N)=O
Stability [1]: Stable
Activity [2]: inactive
Activity [3]: inactive
IC50 [4]: 5.9 µM
IC50 [5]: 2.9 µM
inhibition [6]: Active
IC50 [7]: 4.3 µM
Activity [8]: inactive
Activity [9]: inactive
Activity [10]: inactive
Activity [11]: inactive

SMILES: CC(=O)NCCCC[C@H](NC(=O)[C@H](CCCCNC(C)=S)NC(=O)[C@H](CCCCNC(C)=O)NC(C)=O)C(N)=O
inhibition [12]: Active
Stability [1]: Stable
Activity [2]: 19%
Activity [3]: inactive
IC50 [4]: 2.1 µM
Ratio [13]: 23
inhibition [14]: Dose-dependent effect
IC50 [5]: 2.4 µM
IC50 [7]: 4.5 µM
Activity [8]: inactive
Activity [9]: inactive
Activity [10]: 19%
Activity [11]: inactive

SMILES: CSCC[C@H](NC(=O)[C@H](Cc1ccc(O)cc1)NC(=O)[C@H](CCCCNC(C)=S)NC(=O)[C@H](Cc1ccc(O)cc1)NC(=O)[C@H](Cc1c[nH]cn1)NC(C)=O)C(N)=O (HELM PEPTIDE1{[ac].H.Y.[CC(=S)NCCCC[C@H](N[*:1])C(=O)[*:2]].Y.M.[am]}$$$$V2.0)
IC50 [4]: 6 µM

SMILES: CSCC[C@H](NC(=O)[C@H](CC(C)C)NC(=O)[C@H](CCCC/N=C(/C)S)NC(=O)[C@H](CCCCN)NC(=O)[C@H](Cc1c[nH]cn1)NC(=O)[C@H](CCCN=C(N)N)NC(=O)[C@H](CO)NC(=O)[C@@H](NC(=O)[C@H](CO)NC(=O)[C@H](CCC(N)=O)NC(=O)CNC(=O)[C@H](CCCCN)NC(=O)[C@@H](N)CCCCN)[C@@H](C)O)C(=O)N[C@@H](Cc1ccccc1)C(=O)N[C@@H](CCCCN)C(=O)N[C@H](C(=O)N[C@@H](CCC(=O)O)C(=O)NCC(=O)O)[C@@H](C)O
inhibition [15]: inactive

SMILES: CSCC[C@H](NC(=O)[C@H](CC(C)C)NC(=O)[C@H](CCCCNC(C)=S)NC(=O)[C@H](Cc1ccc(O)cc1)NC(=O)[C@H](Cc1c[nH]cn1)NC(C)=O)C(N)=O (HELM PEPTIDE1{[ac].H.Y.[CC(=S)NCCCC[C@H](N[*:1])C(=O)[*:2]].L.M.[am]}$$$$V2.0)
IC50 [4]: 4.2 µM

SMILES: CC(=S)NCCCC[C@H](NC(=O)OCc1ccccc1)C(=O)Nc1ccccc1
IC50 [4]: 140 µM
inhibition [16]: inactive

Next, values leading:

IC50 [4]: 3.5 µM
SMILES: CSCC[C@H](NC(=O)[C@H](Cc1ccc(O)cc1)NC(=O)[C@H](CCCCNC(C)=S)NC(=O)[C@H](CCCCN)NC(=O)[C@H](Cc1c[nH]cn1)NC(C)=O)C(N)=O (HELM PEPTIDE1{[ac].H.K.[CC(=S)NCCCC[C@H](N[*:1])C(=O)[*:2]].Y.M.[am]}$$$$V2.0)

IC50 [4]: 2 µM
SMILES: CSCC[C@H](NC(=O)[C@H](CCCCNC(C)=O)NC(=O)[C@H](CCCCNC(C)=S)NC(=O)[C@H](CCCCNC(C)=O)NC(=O)[C@H](Cc1c[nH]cn1)NC(C)=O)C(N)=O (HELM PEPTIDE1{[ac].H.K.[CC(=S)NCCCC[C@H](N[*:1])C(=O)[*:2]].K.M.[am]}|PEPTIDE2{[ac]}|PEPTIDE3{[ac]}$PEPTIDE1,PEPTIDE2,3:R3-1:R2|PEPTIDE1,PEPTIDE3,5:R3-1:R2$$$V2.0)

IC50 [4]: 0.7 µM
SMILES: CSCC[C@H](NC(=O)[C@H](CCCCNC(C)=O)NC(=O)[C@H](CCCCNC(C)=S)NC(=O)[C@H](CCCCN)NC(=O)[C@H](Cc1c[nH]cn1)NC(C)=O)C(N)=O (HELM PEPTIDE1{[ac].H.K.[CC(=S)NCCCC[C@H](N[*:1])C(=O)[*:2]].K.M.[am]}|PEPTIDE2{[ac]}$PEPTIDE1,PEPTIDE2,5:R3-1:R2$$$V2.0)

IC50 [4]: 4.1 µM
SMILES: CSCC[C@H](NC(=O)[C@H](CC(C)C)NC(=O)[C@H](CCCCNC(C)=S)NC(=O)[C@H](CCCCNC(C)=O)NC(=O)[C@H](Cc1c[nH]cn1)NC(C)=O)C(N)=O (HELM PEPTIDE1{[ac].H.K.[CC(=S)NCCCC[C@H](N[*:1])C(=O)[*:2]].L.M.[am]}|PEPTIDE2{[ac]}$PEPTIDE1,PEPTIDE2,3:R3-1:R2$$$V2.0)
